≈ marks a conversion by molar mass, not a printed value.
How the values were obtained:
Assay type in all cases: functional
Escherichia coli [1] = assay: Antibacterial activity against CTX-M group 1 enzyme producing Escherichia coli isolates assessed as percent nonsusceptible isolates by broth microdilution method
Escherichia coli [2] = assay: Antibacterial activity against CTX-M group 9 enzyme producing Escherichia coli isolates by broth microdilution method
Escherichia coli [3] = assay: Antibacterial activity against Escherichia coli DH5 alpha-URA5924 isolates expressing CTX-M-32 by agar dilution method
Escherichia coli [4] = assay: Antibacterial activity against Escherichia coli INSRA5924 isolates expressing CTX-M-32 and TEM-1B enzymes by agar dilution method
Escherichia coli [5] = assay: Antibacterial activity against Escherichia coli DH5 alpha isolates by agar dilution method
Escherichia coli [6] = assay: Antibacterial activity against Escherichia coli DH5 alpha-URA5776 isolates expressing CTX-M-14 enzyme by agar dilution method
Escherichia coli [7] = assay: Antibacterial activity against Escherichia coli INSRA5776 isolates expressing CTX-M-14 and TEM-1B enzymes by agar dilution method
Escherichia coli [8] = assay: Antibacterial activity against CTX-M group 1 enzyme producing Escherichia coli isolates by broth microdilution method
Escherichia coli [9] = assay: Antibacterial activity against Escherichia coli DH5 alpha-URA5905 isolates expressing CTX-M-15 and TEM-1B enzymes by agar dilution method
Escherichia coli [10] = assay: Antibacterial activity against Escherichia coli INSRA5905 isolates expressing CTX-M-15 and TEM-1B enzymes by agar dilution method
Escherichia coli [11] = assay: Antibacterial activity against CTX-M group 9 enzyme producing Escherichia coli isolates assessed as percent nonsusceptible isolates by broth microdilution method
Escherichia coli [12] = assay: Antibacterial activity against CTX-M group 9 enzyme producing Escherichia coli isolates assessed as percent resistant isolates by broth microdilution method
Escherichia coli [13] = assay: Antibacterial activity against CTX-M group 1 enzyme producing Escherichia coli isolates assessed as percent resistant isolates by broth microdilution method

SMILES	Activity (Escherichia coli [1]) [%]	MIC50 (Escherichia coli [2]) [µg/mL]	MIC90 (Escherichia coli [2]) [µg/mL]	MIC (Escherichia coli [3]) [µg/mL]	MIC (Escherichia coli [4]) [µg/mL]	MIC (Escherichia coli [5]) [µg/mL]	MIC (Escherichia coli [6]) [µg/mL]	MIC (Escherichia coli [7]) [µg/mL]	MIC50 (Escherichia coli [8]) [µg/mL]	MIC90 (Escherichia coli [8]) [µg/mL]	MIC (Escherichia coli [9]) [µg/mL]	MIC (Escherichia coli [10]) [µg/mL]	Activity (Escherichia coli [11]) [%]	Activity (Escherichia coli [12]) [%]	Activity (Escherichia coli [13]) [%]
CO/N=C(\C(=O)N[C@@H]1C(=O)N2C(C(=O)O)=C(CSc3nc(=O)c(O)nn3C)CS[C@H]12)c1csc(N)n1 (stereo in doubt) [CEFTRIAXONE]	100	> 32	> 32	64 (≈ 115 µM)	256 (≈ 462 µM)	0.03 (≈ 0.0541 µM)	32 (≈ 57.7 µM)	32 (≈ 57.7 µM)	> 32	> 32	256 (≈ 462 µM)	> 512	100	–	–
CC1(C)S[C@@H]2[C@H](NC(=O)C(C(=O)O)c3ccsc3)C(=O)N2[C@H]1C(=O)O (single isomer, unassigned) [TICARCILLIN]	100	> 64	> 64	> 4100	> 4100	4 (≈ 10.4 µM)	> 4100	> 4100	> 64	> 64	> 4100	> 4100	100	–	–
CC(C)(O/N=C(\C(=O)N[C@@H]1C(=O)N2C(C(=O)[O-])=C(C[n+]3ccccc3)CS[C@H]12)c1csc(N)n1)C(=O)O [CEFTAZIDIME]	99	2 (≈ 3.66 µM)	> 16	16 (≈ 29.3 µM)	16 (≈ 29.3 µM)	0.25 (≈ 0.457 µM)	1 (≈ 1.83 µM)	2 (≈ 3.66 µM)	> 16	> 16	64 (≈ 117 µM)	128 (≈ 234 µM)	11	11	98
CC1(C)S[C@@H]2[C@H](NC(=O)[C@H](N)c3ccccc3)C(=O)N2[C@H]1C(=O)O [AMPICILLIN]	100	> 16	> 16	–	–	–	–	–	> 16	> 16	–	–	100	–	–
C[C@@H](O)[C@H]1C(=O)N2C(C(=O)O)=C(SCCNC=N)C[C@H]12 [IMIPENEM ANHYDROUS]	0	≤ 0.5	≤ 0.5	0.125 (≈ 0.418 µM)	0.125 (≈ 0.418 µM)	–	0.5 (≈ 1.67 µM)	≤ 0.06	≤ 0.5	≤ 0.5	–	0.25 (≈ 0.835 µM)	0	–	–
CC1(C)S[C@@H]2[C@H](/N=C\N3CCCCCC3)C(=O)N2[C@H]1C(=O)O	–	–	–	0.5 (≈ 1.54 µM)	2 (≈ 6.15 µM)	0.125 (≈ 0.384 µM)	0.5 (≈ 1.54 µM)	1 (≈ 3.07 µM)	–	–	2 (≈ 6.15 µM)	2 (≈ 6.15 µM)	–	–	–
CC(=O)OCC1=C(C(=O)O)N2C(=O)[C@@H](NC(=O)Cc3cccs3)[C@H]2SC1 [CEPHALOTHIN]	100	> 16	> 16	> 1020	> 1020	8 (≈ 20.2 µM)	1020 (≈ 2580 µM)	> 1020	> 16	> 16	> 1020	> 1020	100	–	–
CCN1CCN(C(=O)N[C@@H](C(=O)N[C@@H]2C(=O)N3[C@@H]2SC(C)(C)[C@@H]3C(=O)O)c2ccccc2)C(=O)C1=O [PIPERACILLIN]	100	> 64	> 64	512 (≈ 989 µM)	> 512	2 (≈ 3.86 µM)	256 (≈ 495 µM)	256 (≈ 495 µM)	> 64	> 64	512 (≈ 989 µM)	> 512	100	–	–
CC1COc2c(N3CCN(C)CC3)c(F)cc3c(=O)c(C(=O)O)cn1c23 (configuration not stated) [OFLOXACIN]	98	≤ 0.5	> 4	–	–	–	–	–	> 4	> 4	–	–	33	–	–
CO/N=C(\C(=O)N[C@@H]1C(=O)N2C(C(=O)O)=C(COC(N)=O)CS[C@H]12)c1ccco1 [CEFUROXIME]	100	> 16	> 16	> 256	> 256	4 (≈ 9.43 µM)	> 256	> 256	> 16	> 16	> 256	> 256	100	–	–
CC1(C)S[C@@H]2[C@H](NC(=O)[C@H](N)c3ccc(O)cc3)C(=O)N2[C@H]1C(=O)O [AMOXICILLIN]	–	–	–	> 4100	> 4100	8 (≈ 21.9 µM)	> 4100	> 4100	–	–	> 4100	> 4100	–	–	–
C[C@@H](O)[C@H]1C(=O)N2C(C(=O)O)=C(S[C@@H]3CN[C@H](C(=O)N(C)C)C3)[C@H](C)[C@H]12 [MEROPENEM]	0	≤ 1	≤ 1	–	–	–	–	–	≤ 1	≤ 1	–	–	0	–	–
CCN1CCN(C(=O)N[C@@H](C(=O)N[C@@H]2C(=O)N3C(C(=O)O)=C(CSc4nnnn4C)CS[C@H]23)c2ccc(O)cc2)C(=O)C1=O [CEFOPERAZONE]	–	–	–	64 (≈ 99.1 µM)	256 (≈ 396 µM)	≤ 0.25	16 (≈ 24.8 µM)	256 (≈ 396 µM)	–	–	256 (≈ 396 µM)	> 512	–	–	–
Cc1nnc(SCC2=C(C(=O)O)N3C(=O)[C@@H](NC(=O)Cn4cnnn4)[C@H]3SC2)s1 [CEFAZOLIN]	100	> 16	> 16	–	–	–	–	–	> 16	> 16	–	–	100	–	–
NC[C@H]1O[C@H](O[C@H]2[C@H](O)[C@@H](O[C@H]3O[C@H](CO)[C@@H](O)[C@H](N)[C@H]3O)[C@H](N)C[C@@H]2N)[C@H](N)C[C@@H]1O [TOBRAMYCIN]	95	≤ 2	> 8	–	–	–	–	–	> 8	> 8	–	–	22	–	94
CO[C@@]1(NC(=O)Cc2cccs2)C(=O)N2C(C(=O)O)=C(COC(N)=O)CS[C@@H]21 [CEFOXITIN]	5	≤ 4	> 16	8 (≈ 18.7 µM)	16 (≈ 37.4 µM)	4 (≈ 9.36 µM)	4 (≈ 9.36 µM)	32 (≈ 74.9 µM)	≤ 4	8 (≈ 18.7 µM)	4 (≈ 9.36 µM)	16 (≈ 37.4 µM)	11	0	1
C[C@H]1[C@H](NC(=O)/C(=N\OC(C)(C)C(=O)O)c2csc(N)n2)C(=O)N1S(=O)(=O)O [AZTREONAM]	100	8 (≈ 18.4 µM)	> 16	64 (≈ 147 µM)	64 (≈ 147 µM)	–	8 (≈ 18.4 µM)	8 (≈ 18.4 µM)	> 16	> 16	64 (≈ 147 µM)	128 (≈ 294 µM)	22	11	100
CO/N=C(\C(=O)N[C@@H]1C(=O)N2C(C(=O)O)=C(COC(C)=O)CS[C@H]12)c1csc(N)n1 (stereo in doubt) [CEFOTAXIME]	100	> 32	> 32	128 (≈ 281 µM)	256 (≈ 562 µM)	0.06 (≈ 0.132 µM)	32 (≈ 70.3 µM)	32 (≈ 70.3 µM)	> 32	> 32	512 (≈ 1120 µM)	512 (≈ 1120 µM)	100	–	99
O=C(O)c1cn(C2CC2)c2cc(N3CCNCC3)c(F)cc2c1=O [CIPROFLOXACIN]	98	≤ 0.5	> 2	≤ 0.125	–	≤ 0.125	≤ 0.125	256 (≈ 773 µM)	> 2	> 2	≤ 0.125	1020 (≈ 3090 µM)	33	–	–
CCn1cc(C(=O)O)c(=O)c2cc(F)c(N3CCNCC3)cc21 [NORFLOXACIN]	98	≤ 2	> 8	–	–	–	–	–	> 8	> 8	–	–	33	33	98
NCC[C@H](O)C(=O)N[C@@H]1C[C@H](N)[C@@H](O[C@H]2O[C@H](CN)[C@@H](O)[C@H](O)[C@H]2O)[C@H](O)[C@H]1O[C@H]1O[C@H](CO)[C@@H](O)[C@H](N)[C@H]1O [AMIKACIN]	7	≤ 8	16 (≈ 27.3 µM)	–	–	–	–	–	≤ 8	16 (≈ 27.3 µM)	–	–	0	–	4
CO/N=C(\C(=O)N[C@@H]1C(=O)N2C(C(=O)[O-])=C(C[N+]3(C)CCCC3)CS[C@H]12)c1csc(N)n1	–	> 16	> 16	4 (≈ 8.32 µM)	16 (≈ 33.3 µM)	0.03 (≈ 0.0624 µM)	2 (≈ 4.16 µM)	8 (≈ 16.6 µM)	> 16	> 16	8 (≈ 16.6 µM)	–	100	78	–
COc1cc(Cc2cnc(N)nc2N)cc(OC)c1OC [TRIMETHOPRIM]	–	–	–	≤ 0.125	0.25 (≈ 0.861 µM)	≤ 0.125	> 64	64 (≈ 220 µM)	–	–	≤ 0.125	≤ 0.125	–	–	–
